According to patent US11142526B2, “Spirocycle compounds and methods of making and using same” (H. Lundbeck A/S, priority 2017, dated 2021):
Read-outs that look alike come from different tables or passages of the source.

Legend:
MAGL [1] = molecular target: MAGL (Homo sapiens (Human), UniProt Q99685); experiment: In vitro competitive activity-based protein profiling (gel-based, FP-Rh or HT-01 probe); assay type: biochemical
Protocol: In Vitro Competitive Activity-Based Protein Profiling.
Proteomes (human prefrontal cortex or cell membrane fractions) (50 μL, 1.0 mg/mL total protein concentration) were preincubated with varying concentrations of inhibitors at 37° C. After 30 min, FP-Rh or HT-01 (1.0 μL, 50 μM in DMSO) was added and the mixture was incubated for another 30 min at room temperature. Reactions were quenched with SDS loading buffer (15 μL—4×) and run on SDS-PAGE.

MAGL [2] = molecular target: MAGL (Mus musculus (Mouse), UniProt O35678); experiment: In vitro competitive activity-based protein profiling, mouse brain proteome; assay type: biochemical; details: for inhibition at 1 µM: mouse; for IC50: mouse brain
Chain of MAGL (Mus musculus (Mouse), UniProt O35678) (O35678 whole entry): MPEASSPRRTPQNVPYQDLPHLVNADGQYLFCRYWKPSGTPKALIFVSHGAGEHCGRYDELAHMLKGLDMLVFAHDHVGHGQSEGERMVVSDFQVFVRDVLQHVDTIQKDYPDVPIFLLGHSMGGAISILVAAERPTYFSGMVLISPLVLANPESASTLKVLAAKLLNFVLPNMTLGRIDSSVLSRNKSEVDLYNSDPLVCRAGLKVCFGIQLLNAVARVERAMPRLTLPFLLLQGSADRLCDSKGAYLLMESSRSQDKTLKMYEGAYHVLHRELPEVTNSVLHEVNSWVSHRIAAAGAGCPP

[3] = human PFC (prefrontal cortex), read-out: MAGL % Inhibition at 1 μM (human PFC)
[4] = human PC3, read-out: MAGL Human PC3 (IC50)
[5] = human PC3, read-out: MAGL % Inhibition at 1 μM (human PC3)
[6] = human PFC (prefrontal cortex), read-out: MAGL Human PFC (IC50)

Chain of MAGL (Homo sapiens (Human), UniProt Q99685) (Q99685 whole entry): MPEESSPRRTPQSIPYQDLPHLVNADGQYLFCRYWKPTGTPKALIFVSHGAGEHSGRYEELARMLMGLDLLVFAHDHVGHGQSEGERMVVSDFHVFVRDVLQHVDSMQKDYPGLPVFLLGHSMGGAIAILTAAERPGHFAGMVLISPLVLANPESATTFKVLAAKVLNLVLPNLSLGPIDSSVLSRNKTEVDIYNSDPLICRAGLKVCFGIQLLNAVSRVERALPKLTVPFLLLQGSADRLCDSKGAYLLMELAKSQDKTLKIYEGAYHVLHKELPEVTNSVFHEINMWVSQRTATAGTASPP

inhibition at 1 µM (MAGL [1]; [3])	IC50 (MAGL [1]; [4])	inhibition at 1 µM (MAGL [2])	inhibition at 1 µM (MAGL [1]; [5])	IC50 (MAGL [2])	IC50 (MAGL [1]; [6])	Structure (SMILES)
> 75%	< 100 nM	> 75%				Cc1cc(Cl)c2nc(CN3CCCC34CCN(C(=O)OC(C(F)(F)F)C(F)(F)F)CC4)cn2c1 [Example 115, 1,1,1,3,3,3-Hexafluoropropan-2-yl 1-((8-chloro-6-methylimidazo [1,2-a]pyridin-2-yl)methyl)-1,8-diazaspiro[4.5] decane-8-carboxylate]
> 75%	< 100 nM	> 75%				Cc1nc2ccccn2c1C(=O)N1CCCC12CCN(C(=O)OC(C(F)(F)F)C(F)(F)F)CC2 [Example 134, 1,1,1,3,3,3-Hexafluoropropan-2-yl 1-(2-methyl-imidazo[1,2-a]pyridine-3-carbonyl)-1,8-diazaspiro[4.5] decane-8-carboxylate]
> 75%	< 100 nM	> 75%				COc1ncc(CN2CCCC23CCN(C(=O)OC(C(F)(F)F)C(F)(F)F)CC3)s1 [Example 138, 1,1,1,3,3,3-Hexafluoropropan-2-yl 1-((2-methoxythiazol-5-yl)methyl)-1,8-diazaspiro[4.5] decane-8-carboxylate]
	< 100 nM	> 75%		100 to 1000 nM		Cn1ccc(C(=O)N2CCCC23CCN(C(=O)OC(C(F)(F)F)C(F)(F)F)CC3)n1 [Example 79, 1,1,1,3,3,3-Hexafluoropropan-2-yl 1-(1-methyl-1H-pyrazole-3-carbonyl)-1,8-diazaspiro[4.5] decane-8-carboxylate]
> 75%	< 100 nM	> 75%				Cc1c(Cl)c(C(=O)N2CCCC23CCN(C(=O)OC(C(F)(F)F)C(F)(F)F)CC3)nn1C [Example 131, 1,1,1,3,3,3-Hexafluoropropan-2-yl 1-(4-chloro-1,5-dimethyl-1H-pyrazole-3-carbonyl)-1,8-diazaspiro[4.5] decane-8-carboxylate]
> 75%		> 75%	> 75%			O=C(OC(C(F)(F)F)C(F)(F)F)N1CCC2(CCCN2C(=O)c2nn3cccnc3c2Cl)CC1 [Example 157, 1,1,1,3,3,3-Hexafluoropropan-2-yl 1-(3-chloropyrazolo[1,5-a]pyrimidine-2-carbonyl)-1,8-diazaspiro[4.5] decane-8-carboxylate]
		> 75%		< 100 nM	< 100 nM	O=C(OC(C(F)(F)F)C(F)(F)F)N1CCC2(CCCN2Cc2cc3cc(Cl)cc(Cl)c3[nH]2)CC1 [Example 110, 1,1,1,3,3,3-Hexafluoropropan-2-yl 1-((5,7-dichloro-1H-indol-2-yl)methyl)-1,8-diazaspiro[4.5] decane-8-carboxylate]
> 75%	< 100 nM	> 75%				O=C(O)Cn1cc(CN2CCCC23CCN(C(=O)OC(C(F)(F)F)C(F)(F)F)CC3)c(-c2cccc(Cl)c2)n1 [Example 118, 2-(3-(3-Chlorophenyl)-4-((8-(((1,1,1,3,3,3-hexafluoropropan-2-yl)oxy)carbonyl)-1,8-diazaspiro[4.5]decan-1-yl)methyl)-1H-pyrazol-1-yl)acetic acid]
> 75%	< 100 nM	> 75%			< 100 nM	O=C(OC(C(F)(F)F)C(F)(F)F)N1CCC2(CCCN2C(=O)c2cc(N3CCCC3)nc(Cl)n2)CC1 [Example 119, 1,1,1,3,3,3-Hexafluoropropan-2-yl 1-(2-chloro-6-(pyrrolidin-1-yl)pyrimidine-4-carbonyl)-1,8-diazaspiro [4.5]decane-8-carboxylate]
> 75%	< 100 nM	> 75%	> 75%			O=C(OC(C(F)(F)F)C(F)(F)F)N1CCC2(CCCN2C(=O)c2cnn3ccc(Cl)nc23)CC1 [Example 145, 1,1,1,3,3,3-Hexafluoropropan-2-yl 1-(5-chloropyrazolo[1,5-a]pyrimidine-3-carbonyl)-1,8-diazaspiro[4.5] decane-8-carboxylate]

The next lines start with the compound.

Structure (SMILES)	inhibition at 1 µM (MAGL [1]; [3])	IC50 (MAGL [1]; [4])	inhibition at 1 µM (MAGL [2])	inhibition at 1 µM (MAGL [1]; [5])	IC50 (MAGL [2])	IC50 (MAGL [1]; [6])
O=C(OC(C(F)(F)F)C(F)(F)F)N1CCC2(CCCN2C(=O)c2cnn3c2OCCC3)CC1 [Example 149, 1,1,1,3,3,3-Hexafluoropropan-2-yl 1-(6,7-dihydro-5H-pyrazolo[5,1-b] [1,3]oxazine-3-carbonyl)-1.8-diazaspiro[4.5] decane-8-carboxylate]	> 75%	< 100 nM	> 75%	> 75%		
Cc1nn(C)c(C(=O)N2CCCC23CCN(C(=O)OC(C(F)(F)F)C(F)(F)F)CC3)c1C#N [Example 19, 1,1,1,3,3,3-hexafluoropropan-2-yl 1-(4-cyano-1,3-dimethyl-1H-pyrazole-5-carbonyl)-1,8-diazaspiro[4.5]decane-8-carboxylate]	> 75%		> 75%			
COCCN(C(=O)C1(c2ncccn2)CC1)C1(C)CCN(C(=O)OC(C(F)(F)F)C(F)(F)F)CC1 [Example 212, 1,1,1,3,3,3-hexafluoropropan-2-yl 4-(N-(2-methoxyethyl)-1-(pyrimidin-2-yl)cyclopropane-1-carboxamido)-4-methylpiperidine-1-carboxylate]	> 75%		> 75%	> 75%		
CC(C)N1CCn2cc(C(=O)N(C)C3(C)CCN(C(=O)OC(C(F)(F)F)C(F)(F)F)CC3)nc2C1 [Example 22, 1,1,1,3,3,3-Hexafluoropropan-2-yl 4-(7-isopropyl-N-methyl-5,6,7,8-tetrahydroimidazo[1,2-a]pyrazine-2-carboxamido)-4-methylpiperidine-1-carboxylate]	> 75%	< 100 nM	> 75%	> 75%		
CC(C)n1cc(C(=O)N2CCCC23CCN(C(=O)OC(C(F)(F)F)C(F)(F)F)CC3)cn1 [Example 71, 1,1,1,3,3,3-Hexafluoropropan-2-yl 1-(1-isopropyl-1H-pyrazole-4-carbonyl)-1,8-diazaspiro[4.5] decane-8-carboxylate]		< 100 nM	> 75%		< 100 nM	
CN1CCN(c2ncncc2C(=O)N2CCCC23CCN(C(=O)OC(C(F)(F)F)C(F)(F)F)CC3)CC1 [Example 136, 1,1,1,3,3,3-Hexafluoropropan-2-yl 1-(4-(4-methylpiperazin-1-yl)pyrimidine-5-carbonyl)-1,8-diazaspiro [4.5]decane-8-carboxylate]	25 to 75%		< 25%			
O=C(OC(C(F)(F)F)C(F)(F)F)N1CCC2(CCCN2C(=O)c2cc3nccc(C4CC4)n3n2)CC1 [Example 165, 1,1,1,3,3,3-Hexafluoropropan-2-yl 1-(7-cyclopropylpyrazolo [1,5-a]pyrimidine-2-carbonyl)-1,8-diazaspiro[4.5] decane-8-carboxylate]	> 75%		> 75%	> 75%		
O=C(OC(C(F)(F)F)C(F)(F)F)N1CCC2(CCCN2C(=O)c2cc3n(n2)CCN(CC2CC2)C3)CC1 [Example 156, 1,1,1,3,3,3-Hexafluoropropan-2-yl 1-(5-(cyclopropylmethyl)-4,5,6,7-tetrahydropyrazolo [1,5-a]pyrazine-2-carbonyl)-1,8-diazaspiro[4.5] decane-8-carboxylate]	> 75%	< 100 nM	> 75%	> 75%		
[2H]C1(N2CCn3cc(C(=O)N(C)C4(C)CCN(C(=O)OC(C(F)(F)F)C(F)(F)F)CC4)nc3C2)CC1 [Example 25, 1,1,1,3,3,3-hexafluoropropan-2-yl 4-(7-(cyclopropyl-1-d)-N-methyl-5,6,7,8-tetrahydroimidazo[1,2-a]pyrazine-2-carboxamido)-4-methylpiperidine-1-carboxylate]		< 100 nM	> 75%	> 75%		
O=C(OC(C(F)(F)F)C(F)(F)F)N1CCC2(CCCN2C(=O)c2cnc(Cl)nc2N2CCCC2)CC1 [Example 117, 1,1,1,3,3,3-Hexafluoropropan-2-yl 1-(2-chloro-4-(pyrrolidin-1-yl)pyrimidine-5-carbonyl)-1,8-diazaspiro [4.5]decane-8-carboxylate]	> 75%	< 100 nM	> 75%			
O=C(OC(C(F)(F)F)C(F)(F)F)N1CCC2(CCCN2C(=O)c2ccc3nccn3c2)CC1 [Example 85, 1,1,1,3,3,3-Hexafluoropropan-2-yl 1-(imidazo[1,2-a]pyridine-6-carbonyl)-1,8-diazaspiro[4.5] decane-8-carboxylate]		< 100 nM	> 75%		100 to 1000 nM	
O=C(OC(C(F)(F)F)C(F)(F)F)N1CCC2(CCCN2C(=O)C2(c3nccc(C(F)(F)F)n3)CC2)CC1 [Example 202, 1,1,1,3,3,3-Hexafluoropropan-2-yl 1-(1-(4-(trifluoromethyl)pyrimidin-2-yl)cyclopropane-1-carbonyl)-1,8-diazaspiro [4.5]decane-8-carboxylate]	> 75%	< 100 nM	> 75%	> 75%		
CN(C(=O)C(F)(F)c1cnccn1)C1(C)CCN(C(=O)OC(C(F)(F)F)C(F)(F)F)CC1 [Example 198, 1,1,1,3,3,3-Hexafluoropropan-2-yl 4-(2,2-difluoro-N-methyl-2-(pyrazin-2-yl)acetamido)-4-methylpiperidine-1-carboxylate]	> 75%		> 75%	> 75%		
O=C(OC(C(F)(F)F)C(F)(F)F)N1CCC2(CCCN2C(=O)c2c(C3CC3)nc3cccnn23)CC1 [Example 3, 1,1,1,3,3,3-Hexafluoropropan-2-yl 1-(2-cyclopropylimidazo[1,2-b]pyridazine-3-carbonyl)-1,8-diazaspiro[4.5]decane-8-carboxylate]	> 75%		> 75%	> 75%		
